Source: the supplement of paper PMC6045584
± gives the standard deviation of the averaged measurements.

How the values were obtained:
[1] = compound: CCn1c(C(=O)N(C2CC2)C2CC2)cc2c3c(ncn3C)c(Nc3cc(C)n(C)n3)nc21; test: surviving fraction relative to DMSO-only wells; higher = less growth inhibition; details: exposure time: 5 days
Outline: (§1)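 Inhibitors at 0.5, 1, 5, 10, 50, 100, 500 and 1000 nM were applied continuously for five days to tumour cell lines seeded in log phase at 250–500 cells per well in 384-well plates 24 hours earlier. Viability was measured by CellTiter-Glo luminescence and expressed as surviving fraction relative to the median of DMSO-only wells. Luminescence was taken after 10 minutes at room temperature.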

[2] = compound: COc1cc2c(Oc3ccc(NC(=O)C4(C(=O)Nc5ccc(F)cc5)CC4)cc3F)ccnc2cc1OCCCN1CCOCC1 [FORETINIB]; test: as above; details: exposure time: 5 days
Outline: as §1

Test System | surviving fraction ([1]; 0.5 nM) | surviving fraction ([1]; 1 nM) | surviving fraction ([1]; 5 nM) | surviving fraction ([1]; 10 nM) | surviving fraction ([1]; 50 nM) | surviving fraction ([1]; 100 nM) | surviving fraction ([1]; 500 nM) | surviving fraction ([1]; 1000 nM) | surviving fraction ([2]; 0.5 nM) | surviving fraction ([2]; 1 nM) | surviving fraction ([2]; 5 nM) | surviving fraction ([2]; 10 nM) | surviving fraction ([2]; 50 nM) | surviving fraction ([2]; 100 nM) | surviving fraction ([2]; 500 nM) | surviving fraction ([2]; 1000 nM)
HCC1395 BREAST | 1.15 ± 0.067 | 1.06 ± 0.14 | 1.25 ± 0.057 | 1.16 ± 0.1 | 1.216 ± 0.0056 | 1.12 ± 0.21 | 0.973 ± 0.13 | 1.1 ± 0.16 | 1.07 ± 0.09 | 1.08 ± 0.11 | 1.26 ± 0.076 | 1.17 ± 0.048 | 1.09 ± 0.083 | 1.02 ± 0.034 | 0.939 ± 0.063 | 0.796 ± 0.085
HCC1806 BREAST | 0.959 ± 0.2 | 0.993 ± 0.095 | 1.13 ± 0.043 | 1.04 ± 0.089 | 1.02 ± 0.11 | 1.21 ± 0.1 | 0.982 ± 0.078 | 0.885 ± 0.12 | 1.13 ± 0.071 | 0.942 ± 0.035 | 1.21 ± 0.031 | 1.12 ± 0.038 | 1.16 ± 0.11 | 1.12 ± 0.056 | 0.468 ± 0.014 | 0.452 ± 0.033
HCC1954 BREAST | 0.868 ± 0.014 | 0.837 ± 0.18 | 0.999 ± 0.22 | 0.932 ± 0.18 | 0.92 ± 0.028 | 0.896 ± 0.013 | 0.764 ± 0.065 | 0.921 ± 0.085 | 0.975 ± 0.071 | 1.16 ± 0.25 | 1.09 ± 0.08 | 1.14 ± 0.1 | 0.965 ± 0.14 | 0.903 ± 0.05 | 0.6953 ± 0.006 | 0.418 ± 0.068
HCT15 LARGE INTESTINE | 0.987 ± 0.032 | 0.972 ± 0.011 | 0.944 ± 0.021 | 0.986 ± 0.011 | 1.05 ± 0.043 | 1.05 ± 0.031 | 1.06 ± 0.018 | 1.06 ± 0.03 | 1.08 ± 0.1 | 1.09 ± 0.084 | 1.06 ± 0.09 | 1.05 ± 0.073 | 1.07 ± 0.091 | 1.11 ± 0.097 | 0.217 ± 0.046 | 0.203 ± 0.042
HELA CERVIX | 1 ± 0.096 | 0.998 ± 0.036 | 0.939 ± 0.059 | 0.953 ± 0.044 | 1.09 ± 0.033 | 1.04 ± 0.026 | 1.05 ± 0.037 | 1.1 ± 0.09 | 1.09 ± 0.037 | 1.05 ± 0.091 | 1.1 ± 0.039 | 1.05 ± 0.052 | 1.14 ± 0.11 | 1.15 ± 0.042 | 0.659 ± 0.073 | 0.07233 ± 0.00058
HOS BONE | 1 ± 0.0066 | 0.9927 ± 0.0081 | 0.994 ± 0.023 | 0.997 ± 0.0046 | 1.047 ± 0.0078 | 1.037 ± 0.0023 | 1.02 ± 0.013 | 0.96 ± 0.018 | 1.014 ± 0.0075 | 1.01 ± 0.012 | 1.057 ± 0.0045 | 1.01 ± 0.022 | 1.02 ± 0.075 | 1.02 ± 0.036 | 0.55 ± 0.024 | 0.451 ± 0.013
HOSMNG BONE | 1 ± 0.071 | 0.979 ± 0.11 | 0.992 ± 0.068 | 0.985 ± 0.07 | 1.04 ± 0.061 | 1.08 ± 0.08 | 1.01 ± 0.1 | 1.09 ± 0.038 | 0.915 ± 0.11 | 0.904 ± 0.074 | 0.895 ± 0.066 | 0.855 ± 0.036 | 0.55 ± 0.039 | 0.381 ± 0.014 | 0.128 ± 0.0089 | 0.065 ± 0.0044
HSSYII SYNOVIAL | 0.918 ± 0.058 | 0.908 ± 0.022 | 0.905 ± 0.061 | 0.901 ± 0.022 | 0.937 ± 0.025 | 0.926 ± 0.027 | 0.926 ± 0.049 | 0.887 ± 0.039 | 0.972 ± 0.039 | 0.941 ± 0.031 | 0.956 ± 0.038 | 0.92 ± 0.039 | 0.85 ± 0.028 | 0.771 ± 0.028 | 0.208 ± 0.021 | 0.0695 ± 0.0013
HT1080 SOFT TISSUE | 1.01 ± 0.04 | 0.993 ± 0.015 | 1.004 ± 0.0098 | 1.039 ± 0.002 | 0.965 ± 0.023 | 1.01 ± 0.036 | 0.997 ± 0.036 | 0.969 ± 0.011 | 1.01 ± 0.026 | 1.06 ± 0.037 | 1 ± 0.017 | 1.01 ± 0.033 | 1.04 ± 0.048 | 0.996 ± 0.017 | 0.779 ± 0.025 | 0.3927 ± 0.0032
HU09 BONE | 1.06 ± 0.09 | 1.03 ± 0.11 | 1.09 ± 0.081 | 1.18 ± 0.22 | 1.25 ± 0.32 | 1 ± 0.072 | 0.915 ± 0.091 | 0.932 ± 0.064 | 0.923 ± 0.11 | 1.01 ± 0.063 | 1 ± 0.08 | 0.958 ± 0.082 | 0.625 ± 0.1 | 0.496 ± 0.087 | 0.201 ± 0.016 | 0.0877 ± 0.0029
